Results reported in the NIST ThermoML archive (doi:10.1016/j.jct.2018.12.037).
Numbers after ± are expanded uncertainties.

Key:
[1] = refractive index (Na D-line) (dimensionless); xn = mol fraction of the nth substance listed; details: 293.15 K; 100 kPa; Liquid; Standard Abbe refractometry; x1 = 0.52
[2] = xn = mol fraction of the nth substance listed; details: 100 kPa, Liquid, Vibrating tube method, x1 = 0.52

C[C@@H]1CC[C@H](C)O1 [cis-2,5-dimethyltetrahydrofuran] + C[C@@H]1CC[C@@H](C)O1
Details | refractive index
[1] | 1.4043 ± 0.0004

[2]
Details | mass density [kg/m3]
273.15 K | 848.22 ± 2.3
283.15 K | 838.53 ± 2.3
293.15 K | 828.71 ± 2.3
298.15 K | 823.89 ± 2.3
303.15 K | 818.91 ± 2.3
